In patent US20120165223A1 (priority 2006, published 2012):

Tested on: crypt cells of the colon of HFA mice
Conditions: DNA chip, colonic crypt cells, 200 mg/kg orally four days
Procedure: The collected colon is opened and intestinal content is cleaned with a sterilized saline solution and put in a cryomold in the longitudinal direction to be embedded as an OCT compound and then it is maintained in a freezer at −80° C. The frozen tissue is cut to have the thickness of 8 μm using a cryotome, put on a glass slide (HistoGene LCM slide, Arcturus) and cleaned using a staing (HistoGene LCM frozen section staing kit, Arcturus) and then a hematoxylin stain is performed and then dehydrated. The stained colonic tissue slide of the dyed mice is put on a laser captured microdissector (PixCell II, Arcturus) and crypt cells are isolated from the colon by a laser.
The amplified aRNA (24 μl) of 10 μg is mixed with random hexamer (5 mg/Ml) of 2 μl to be 24 μl which is heated for 10 minutes at 70° C. The first strand master mix liquid of 26 μl containing Cy3- or Cy5-dUTP (1 mM, respectively) is added to aRNA and reacted for two hours at 37° C. […] After the cDNA is deactivated for three minutes at 98° C., a control target of 25 μl with 2× hybridization buffer of 105 μl (Agilent In situ Hybridization kit) to be instilled on a mouse DNA microarray chip (TwinChip Mouse 7.4K cDNA array, Digital Genomics, Seoul, Korea) and hybridized for 17 hours at 60° C. […] Each fluorescence intensity is obtained by performing a global normalization and measuring the ratio of expressing Cy3- and Cy5- fluorescence with respect to one gene.

O=C(O)c1cn(C2CC2)c2cc(N3CCNCC3)c(F)cc2c1=O [Cip, Ciprofloxacin]
Ang gene expression in comparison with HFA (FIG. 4a): nearly two or four times
Casp14 gene expression in comparison with HFA (FIG. 3A): increase the expression of the genes
Eif2ak3 gene expression in comparison with HFA (FIG. 3A): increase the expression of the genes
I16 gene expression in comparison with HFA (FIG. 3A): increase the expression of the genes
Mpp1 gene expression in comparison with HFA (FIG. 4a): prevent genes from expressing themselves more than twice
Mt1 gene expression in comparison with HFA (FIG. 4a): nearly two or four times
S1c26a1 gene expression in comparison with HFA (FIG. 4a): prevent genes from expressing themselves more than twice
Saa3 gene expression in comparison with HFA (FIG. 4a): prevent genes from expressing themselves more than twice
Spn2a gene expression in comparison with HFA (FIG. 3A): prevent genes from expressing themselves more than twice
Tegt gene expression in comparison with HFA (FIG. 3A): prevent genes from expressing themselves more than twice

CN(C)[C@@H]1C(=O)C(C(N)=O)=C(O)[C@@]2(O)C(=O)C3=C(O)c4c(O)cccc4[C@@](C)(O)[C@H]3C[C@@H]12 [TC, Tetracycline]
Ang gene expression in comparison with HFA (FIG. 4a): nearly two or four times
Casp14 gene expression in comparison with HFA (FIG. 3A): increase the expression of the genes
Eif2ak3 gene expression in comparison with HFA (FIG. 3A): increase the expression of the genes
I16 gene expression in comparison with HFA (FIG. 3A): increase the expression of the genes
Mpp1 gene expression in comparison with HFA (FIG. 4a): prevent genes from expressing themselves more than twice
Mt1 gene expression in comparison with HFA (FIG. 4a): nearly two or four times
S1c26a1 gene expression in comparison with HFA (FIG. 4a): prevent genes from expressing themselves more than twice
Saa3 gene expression in comparison with HFA (FIG. 4a): prevent genes from expressing themselves more than twice
Spn2a gene expression in comparison with HFA (FIG. 3A): prevent genes from expressing themselves more than twice
Tegt gene expression in comparison with HFA (FIG. 3A): prevent genes from expressing themselves more than twice
